Measured values published in patent US5871779A, “Treatment of arthropathies with vanadate compounds or analogues thereof” (Mount Sinai Hospital Corporation, priority 1996, dated 1999).

What was measured:
fos = fos / c-fos mRNA expression in chondrocytes (Northern blot); type: cell-based, bovine; details: stimulus alone; H2 O2 30, 60 and 90 minutes; IL-1, PMA or AA (3 μM) 1 hour
Procedure: (§1) The cytokine interleukin 1 (IL 1) has been used to identify the intermediate second messengers which regulate the expression of fos and jun.
In order to elucidate this possibility, the effect of DPI on fos and jun mRNA levels induced by IL 1 was investigated. RNA from chondrocytes treated with IL 1 in the presence and absence of DPI were analyzed by Northern blot analysis using either fos or collagenase cDNA probes.
Since superoxides are rapidly converted to hydrogen peroxide in the cell by superoxide dismutase, whether hydrogen peroxide could mimic the effect of IL 1 in the induction of fos expression was investigated. RNA was extracted from chondrocytes (Kandel et al. supra) treated with H2 O2 for 30, 60 and 90 minutes and examined by Northern blot analysis using a fos cDNA probe.
Bovine articular chondrocytes were isolated and plated as previously described (Kandel R. A. et al. Biochim. Biophys. Acta. 1053, 130-134, 1990). […] The amount of ^3 H-AA liberated into the supernatant was determined. To measure PGE2 production, chondrocytes were incubated for 6 hours in Ham's F12 medium, either alone or with IL 1 or PMA. […] In order to examine the expression of c-fos and c-jun, chondrocytes were incubated for 1 hour in the presence of IL-1, PMA or AA (3 μM). Chondrocytes were washed in PBS and the total RNA extracted as previously described (Cruz. et al, 1991, Biochem. J. 277, 327-330). RNA samples were run on formaldehyde agarose gels and transferred to nylon membrane for northern analysis using cDNA probes for c-fos and c-jun.
The RNA was extracted and examined by Northern blot analysis using cDNA probes for c-fos and collagenase.

jun = jun / c-jun mRNA expression in chondrocytes (Northern blot); type: cell-based, bovine; details: stimulus alone, 1 hour
From the text: as §1
Although IL 1 stimulated superoxide production, it was not known whether IL 1 induced fos and jun expression was dependent on the production of superoxides. In order to elucidate this possibility, the effect of DPI on fos and jun mRNA levels induced by IL 1 was investigated. RNA from chondrocytes treated with IL 1 in the presence and absence of DPI were analyzed by Northern blot analysis using either fos or collagenase cDNA probes. […] Similar data has been obtained for IL 1 induced jun expression. Furthermore, inhibition of fos and jun expression by DPI was sufficient to suppress IL 1 induced and constitutive collagenase expression.
The effect of orthovanadate and N-acetylcysteine on fos, jun and collagenase expression were examined. Bovine articular chondrocytes were isolated and plated as previously described (Kandel R. A. et al. Biochim. Biophys. Acta. 1053, 130-134, 1990). In order to determine the effect of orthovanadate on IL 1 and PMA (phorbol ester) induced responses, chondrocytes were incubated with orthovanadate (100 μM) for 2 hours before stimulation with IL 1 (10 ng/ml) or PMA ([…]). Collagenase production was determined by incubating chondrocytes for 24 hours with IL 1 or PMA and the cell conditioned medium was assayed for collagenase activity using an ELISA procedure as described previously (Kandel et al. supra). PLA2 activity was measured by incorporating ^3 H-arachidonic acid (^3 H-AA) into the cells and then incubating the cells with medium containing 1 mg/ml BSA, either alone or in the presence of IL 1 or PMA, for 10 min. as previously described (Conquer, J. A. […], Biochim. Biophys. Acta. 1134, 1-6). The amount of ^3 H-AA liberated into the supernatant was determined. […] The supernatant was analyzed by RIA using an antibody specific for PGE2 (Dr. S. A. Jones, Mount Sinai Hospital, Toronto, Canada). […]

c-fos = assay: TNFα and bFGF induced c-fos mRNA in chondrocytes (Northern blot); type: cell-based, bovine; details: 100 μM, 2 hours preincubation
Procedure: Chondrocyte cultures were stimulated with H2 O2 (100 μM) at different time points as indicated. […] Chondrocyte cultures were preincubated with NAC (30 mM) or Asc (100 μM) for 2 hours before the addition of bFGF (10 ng/ml) or TNFα (30 ng/ml) for 30 minutes. Both human recombinant TNFα and bFGF were dissolved in phosphate buffered saline with 0.1% bovine serum albumin. NAC and Asc were first dissolved in Ham's F12 medium containing 5% (v/v) fetal bovine serum, then neutralized with sodium hydroxide. Total RNA from bovine articular chondrocytes was isolated and the c-fos mRNA levels were determined by Northern blot analysis as described herein. The blots were subsequently stripped of DNA and re-probed with ^32 p-labelled rat β tubulin cDNA.
Chondrocyte cultures were pretreated with DPI (2 μM) for 30 minutes before the addition of TNFα (30 ng/ml) or bFGF (10 ng/ml) for 30 minutes. Measurements of c-fos and tubulin mRNA levels were as described in Example 11.

carcinogenesis = details: G. Shklar et al.; cited from earlier work
collagenase = collagenase production by chondrocytes (ELISA); type: cell-based, bovine; details: stimulus alone, 24 hours
Procedure: The effect of orthovanadate and N-acetylcysteine on fos, jun and collagenase expression were examined. Bovine articular chondrocytes were isolated and plated as previously described (Kandel R. A. et al. Biochim. Biophys. Acta. 1053, 130-134, 1990). In order to determine the effect of orthovanadate on IL 1 and PMA (phorbol ester) induced responses, chondrocytes were incubated with orthovanadate (100 μM) for 2 hours before stimulation with IL 1 (10 ng/ml) or PMA ([…]). Collagenase production was determined by incubating chondrocytes for 24 hours with IL 1 or PMA and the cell conditioned medium was assayed for collagenase activity using an ELISA procedure as described previously (Kandel et al. supra). PLA2 activity was measured by incorporating ^3 H-arachidonic acid (^3 H-AA) into the cells and then incubating the cells with medium containing 1 mg/ml BSA, either alone or in the presence of IL 1 or PMA, for 10 min. as previously described (Conquer, J. A. […], Biochim. Biophys. Acta. 1134, 1-6). The amount of ^3 H-AA liberated into the supernatant was determined. To measure PGE2 production, chondrocytes were incubated for 6 hours in Ham's F12 medium, either alone or with IL 1 or PMA. The supernatant was analyzed by RIA using an antibody specific for PGE2 (Dr. S. A. Jones, Mount Sinai Hospital, Toronto, Canada). In order to examine the expression of c-fos and c-jun, chondrocytes were incubated for 1 hour in the presence of IL-1, PMA or AA (3 μM). Chondrocytes were washed in PBS and the total RNA extracted as previously described (Cruz. et al, 1991, Biochem. J. 277, 327-330). RNA samples were run on formaldehyde agarose gels and transferred to nylon membrane for northern analysis using cDNA probes for c-fos and c-jun.

PLA2 = assay: release of 3H-arachidonic acid from chondrocytes (PLA2 activity); type: cell-based, bovine; details: stimulus alone, 10 min
Procedure: (§2) The effect of orthovanadate and N-acetylcysteine on fos, jun and collagenase expression were examined. Bovine articular chondrocytes were isolated and plated as previously described (Kandel R. A. et al. Biochim. Biophys. Acta. 1053, 130-134, 1990). In order to determine the effect of orthovanadate on IL 1 and PMA (phorbol ester) induced responses, chondrocytes were incubated with orthovanadate (100 μM) for 2 hours before stimulation with IL 1 (10 ng/ml) or PMA ([…]). Collagenase production was determined by incubating chondrocytes for 24 hours with IL 1 or PMA and the cell conditioned medium was assayed for collagenase activity using an ELISA procedure as described previously (Kandel et al. supra). PLA2 activity was measured by incorporating ^3 H-arachidonic acid (^3 H-AA) into the cells and then incubating the cells with medium containing 1 mg/ml BSA, either alone or in the presence of IL 1 or PMA, for 10 min. as previously described (Conquer, J. A. […], Biochim. Biophys. Acta. 1134, 1-6). The amount of ^3 H-AA liberated into the supernatant was determined. To measure PGE2 production, chondrocytes were incubated for 6 hours in Ham's F12 medium, either alone or with IL 1 or PMA. The supernatant was analyzed by RIA using an antibody specific for PGE2 (Dr. S. A. Jones, Mount Sinai Hospital, Toronto, Canada). […]

PGE2 = PGE2 production by chondrocytes (RIA); type: cell-based, bovine; details: stimulus alone, 6 hours
Procedure: as §2

KB8, KB8-5 and KB85-11 = details: stated as background; cited from earlier work
P388 (WT) = assay: MTT cytotoxicity assay, P388 (WT); type: cell-based, murine; details: Mus musculus, P388, 72 h, read-out: IC50 Value
Procedure: (§3) The relative cytotoxicity of various compounds on tumor cell lines was investigated as follows. Cytotoxicity was measured by the MTT microculture tetrazolium colorimetric assay for all cell lines. The relative cytotoxicity of Na3 VO4 and VOSO4 was investigated using the following tumor cell lines: P388(WT) murine leukemia, P388 (ADR) murine leukemia, Lewis murine lung, MCF7 (WT) human breast, […] human lung, K562 human erythroleukemia, A431 human epidermal, LS180 human colon and SK-OV-3 human ovarian. The relative cytotoxicity of doxorubicin, Na3 VO4 and VOSO4 was investigated using the following tumor cell lines: P388(WT) murine leukemia, P388 (ADR) murine leukemia, MCF7(WT) human breast and MCF7 (ADR) human breast. The relative cytotoxicity of BMOV, BEOV and naglivan was investigated using the following tumor cell lines: P388(WT) murine leukemia, P388 (ADR) murine leukemia, Lewis murine lung, H460 human lung, K562 human erythroleukemia, and SK-OV-3 human ovarian.
(§4) The cells were plated (number of cells/well was different from cell line to cell depending on the dividing rate) in a 96-well microculture plate 24 hours prior to the delivery of the vanadium compounds. Serial concentrations of solutions of the test compounds (0.05-100 μM) were delivered to the corresponding wells. A blank column (without cells) and a control column (with cells without vanadium) were left. The cells were incubated for 72 hours continuously. An MTT solution was added to each well after this incubation period and the cells were incubated for 4 more hours for the completion of the dyeing process. The medium was removed find DMSO was added to each well. The absorbance of each well was read with a Titertek Multiskan (310C) spectrophotometer at 570 nm. The percentage of the absorbance of each vanadium concentration relative to the control calculated and the value of the 50% growth inhibition concentration (IC50) was obtained from the % control versus concentration plot. Each assay was repeated three times and the reported IC50 values were the mean of these three runs.

P388 (ADR) = assay: MTT cytotoxicity assay, P388 (ADR); type: cell-based, murine; details: Mus musculus, P388/ADR, 72 h, read-out: IC50 Value
Procedure: as §3, §4

MCF7 (WT) = assay: MTT cytotoxicity assay, MCF7 (WT); type: cell-based, human; details: Homo sapiens, MCF7, 72 h, read-out: IC50 Value
Procedure: as §3, §4

MCF7 (ADR) = assay: MTT cytotoxicity assay, MCF7 (ADR); type: cell-based, human; details: Homo sapiens, NCI/ADR-RES, 72 h, read-out: IC50 Value
Procedure: as §3, §4

chondrocytes = assay: TNFα and bFGF induced ROS production in chondrocytes (DHR fluorescence); type: cell-based; details: 4 hours in the presence of DHR
Procedure: With time, DHR by itself caused a shift in fluorescence to the right as shown in panels a to c. A dotted line was drawn through the mean fluorescence intensity of the control (panel c) with DHR alone for 4 hours. After incubation with TNFα or bFGF for 4 hours in the presence of DHR, there was a further shift in logarithmic fluorescence intensity as indicated in panel d or f. In panels e and g, DPI abolished the fluorescent shift stimulated by TNPα and bFGF respectively.

With `CCCCC/C=C\C/C=C\C/C=C\C/C=C\CCCC(=O)O` [AA, arachidonic acid] the “stimulation of fos / c-fos expression” value (fos) was “stimulated” and the “stimulation of c-jun expression” value (jun) was “stimulated”.

In the case of `O=C1O[C@H]([C@@H](O)CO)C(O)=C1O` [Asc, ascorbic acid], the “inhibition of TNFα and bFGF induced c-fos mRNA levels” value (c-fos) is given as “inhibit” and the anticancer activity (carcinogenesis) is given as “anticancer activity”.

For `CCCCCCCCCCCCCC(=O)O[C@@H]1[C@@H](C)[C@@]2(O)[C@@H](C=C(CO)C[C@]3(O)C(=O)C(C)=C[C@@H]23)[C@@H]2C(C)(C)[C@]12OC(C)=O` [PMA, reference compound], the “stimulation of fos / c-fos expression” value (fos) was “stimulated”, the “stimulation of c-jun expression” value (jun) was “stimulated” and the “induction of collagenase production” value (collagenase) was “induced”. The “induction of 3H-AA release” value (PLA2) was “induced” and the “induction of PGE2 production” value (PGE2) was “induced”.

In the case of `COc1cc2c(c(OC)c1OC)-c1ccc(OC)c(=O)cc1[C@@H](NC(C)=O)CC2` [colchicine], the “killing of drug resistant cell lines by conventional chemotherapeutic agents” value (from here on “killing of drug resistant cell lines”) (KB8, KB8-5 and KB85-11) is listed as “not killed”.

Work on `COc1cccc2c1C(=O)c1c(O)c3c(c(O)c1C2=O)C[C@@](O)(C(=O)CO)C[C@@H]3O[C@H]1C[C@H](N)[C@H](O)[C@H](C)O1` [doxorubicin, reference compound] yielded an IC50 (P388 (WT)) of 23 nM, an IC50 (P388 (ADR)) of 3770 nM and an IC50 (MCF7 (WT)) of 492 nM. For the same compound, the IC50 (MCF7 (ADR)) was 25700 nM and the “killing of drug resistant cell lines” value (KB8, KB8-5 and KB85-11) was “not killed”.

In the case of `CC[C@]1(O)C[C@@H]2CN(CCc3c([nH]c4ccccc34)[C@@](C(=O)OC)(c3cc4c(cc3OC)N(C)[C@H]3[C@@](O)(C(=O)OC)[C@H](OC(C)=O)[C@]5(CC)C=CCN6CC[C@]43[C@@H]65)C2)C1` [vinblastine], the “killing of drug resistant cell lines” value (KB8, KB8-5 and KB85-11) is listed as “not killed”.

For TNFα, the “shift in logarithmic fluorescence intensity (ROS production)” value (chondrocytes) was “further shift”.

In the case of bFGF: human recombinant bFGF, the “shift in logarithmic fluorescence intensity (ROS production)” value (chondrocytes) is reported as “further shift”.
